1 compound from US12344852B2, “Control of phenotype in plants” (GREENVENUS, LLC, priority 2016, dated 2025) can be followed below.

Assay [1] relates to FT gene under EcR-based gene switch. Put plainly: FT expression by qRT-PCR over the time-course of induction in ID14-50 plants. It is filed as in vivo, Arabidopsis. The settings on record: homozygous ID14-50 T3 plants, all concentrations (10, 50, 250 nM), long and short day photoperiod. An excerpt:
FT expression was characterized at five time-points over the time-course of induction. One leaf per plant was collected at time-zero before ligand application corresponding to 17 and 24 days old plants in long and short day photoperiod, at one day after treatment started corresponding to 18 and 25 days old plants, four days after treatment started corresponding to 21 and 28 days old plants, seven days after ligand application started corresponding to 24 and 31 days old plants and, eleven days after treatment started corresponding to 28 and 35 days old plants for RNA extraction using a Qiagen RNA easy kit. First-strand cDNA was synthesized from the total RNA to be used as template for qRT-PCR analysis. qRT-PCR was set-up as previously described for T2 characterization. […] For most homozygous plants FT expression stayed relatively high and to a similar level from day one to day seven post-treatment before going down a little by day eleven post-treatment. For all time points, tissue was collected at the end of a period of induction, right before treatment was re-applied. […] FT expression in mock-treated plants as well as null and mutant treated plants stayed very low for the most part over the eleven days of treatment. In all genotypes, there is a large variation in FT expression among individual plants in the groups of siblings.

For another assay, the system named is Botrytis cinerea. In words: Ligand inducible disease resistance screening of detached petunia leaves. It counts as in vivo. The procedure:
Botrytis cinerea isolation and inoculation. The plant pathogen was isolated from diseased strawberries displaying typical symptomology. A single spore colony was isolated using standard plant pathology methodologies and the ITSI—5.8S rDNA—ITSII locus was amplified and sequenced to validate its identity. The isolate used is 100% identical to more than 20 previously reported B. cinerea isolates in Genbank. For plant inoculation B. cinerea was grown on V8 Agar media under fluorescent light for 2 weeks until the typical grey mass of aerial spores was visible. A section of the colony was placed into 10 mL of sterile DI water and vortexed vigorously to dislodge spores. The resulting solution was filtered through a 70 micron mesh to yield a homogenous spore solution free of mycelia and agar media. The spore solution was spun down and washed 3× in sterile DI water and quantified using a hemocytometer. The solution was diluted in sterile DI water to a final concentration of 200,000 spores/ml. For petunia inoculations, detached leaves were wounded with a sterile forceps (approximately 0.5 mm abrasion) and the wounded site was inoculated with 10 μL of spore solution (2,000 spores/inoculation site). Three leaves/treatment and three wound sites/leaf were inoculated with spore solution for each assay. […]

The subject of assay [2] is IP:ChsA RNAi (ID164) transgenic Petunia plants. Put plainly: Flower color change in IP:ChsA RNAi (ID164) transgenic petunia after ligand spray. It is filed as in vivo, Petunia hybrida variety V26. Conditions: for time to change flower color from dark purple to variegate: one application. An excerpt:
DNA construct ID164 (LB-IP:ChsA RNAi+35S:AP+CsVMV:NptII-RB) (SEQ ID NO:55) containing both the inducible promoter (IP) composed of 5 GAL4 regulatory elements (GAL4-RE) placed upstream of the minimal CaMV-35S promoter and the multidomain activator (AP) protein gene (VGE(E68V/V184I/Y204E) under the control of CaMV-35S promoter is shown in FIG. 20B. ID164 (SEQ ID NO:55) was used to transform wild type (wt) Petunia hybrid variety V26. The chalcone synthase hairpin transcript will not be express until the activator ligand (methoxyfenozide; Mtf) is provided to mobilize the activator proteins for binding to the GAL4-RE and switching the inducible promoter FS on. Transgene copy number was assessed for 56 TO transgenic plants by Tagman assay. 84% were low copies (two copies and below), 12.5% were high copy (three copies and above) and, few plants were nulls. Before ligand application most (98%) plants were flowering as dark purple color. Plants were divided in five groups, each group being treated differently. Treatment occurred every other day at a rate of 30 ml per plant. Treatment is sprayed on plants (leaves and flowers). Water is used as a mock treatment while INTREPID® 2F insecticide (Mtf being the active ingredient) is used as a ligand treatment. Group one was mock treated. Group two was treated with 2.5 uM Mtf in INTREPID® 2F insecticide form. Group three was treated with 1 mM Mtf (highest recommended dose on ornamental plants for INTREPID® 2F). Group four was treated with 2 mM Mtf and group five treated with 5 mM Mtf. […] When increasing the ligand concentration to 1 mM, change in flower color, dark purple to variegate, was observed faster (7 days post-treatment) on 50% of plants as shown in FIG. 23. With 2 mM and 5 mM ligand, one application (2 days post-treatment) was sufficient to change flower color from dark purple to variegate as shown in FIG. 24 and FIG. 25, respectively. Decrease in ChsA gene expression level in treated plants compared to their higher level before ligand treatment correlates with their change in flower color as shown in FIG. 21.

With `COc1cccc(C(=O)NN(C(=O)c2cc(C)cc(C)c2)C(C)(C)C)c1C` [methoxyfenozide, 3-methoxy-2-methylbenzoic acid 2-(3,5-dimethylbenzoyl)-2-(1,1-dimethylethyl)hydrazide], in assay [1], the FT expression result is given as “increases as early as one day post-treatment”. In the assay with Botrytis cinerea (leaves on 50 uM in 1% phytoagar, inoculated after 3 days, read 7 days after pathogen inoculation), the “disease resistance of Switch-DCL1/DCL2/GUS hairpin line” value is reported as “ligand induced disease resistance”. Besides, the “disease resistance of constitutive DCL-25 (+ control) and non-specific dsRNA line (− control)” value in the assay on Botrytis cinerea (presence or absence of 50 uM ligand) is “no change in disease resistance”. In assay [2] (2.5 uM), the “time to flower color change from dark purple to light purple” value is on record as 10 days post-treatment. Besides, the “plants showing flower color change from dark purple to light purple” value in assay [2] (2.5 uM, sprayed every other day, 30 ml per plant, INTREPID 2F form) is recorded as 50%. In assay [2] (1 mM), the “plants showing change in flower color, dark purple to variegate” value is listed as 50% and the “time to change in flower color, dark purple to variegate” value was determined as 7 days post-treatment. For the same compound, the “time to change flower color from dark purple to variegate” value in assay [2] (2 mM) is given as 2 days post-treatment. Moreover, in assay [2] (5 mM), the “time to change flower color from dark purple to variegate” value amounted to 2 days post-treatment.
